This is an account of results in US9023865B2, “Compounds that are ERK inhibitors” (Merck Sharp & Dohme Corp., priority 2011, dated 2015).

The term IC50 denotes the concentration at which inhibition is half-maximal.

The target of test [1] is Active Mouse ERK2 (mERK2) (Mus musculus (Mouse), UniProt P63085). Nature of the test: Active Mouse ERK2 (mERK2) Activity Assay (IMAP-FP). Type of test: biochemical. The protocol:
Active Mouse ERK2 (mERK2) Activity Assay:
Activated ERK2 activity was determined in an IMAP-FP assay (Molecular Devices). […] Phosphorylation reactions were allowed to proceed for 45 minutes and were immediately quenched by the addition of 60 μL IMAP detection beads (1:1000 dilutions) in IMAP binding buffer (Molecular Devices) with 24 mM NaCl. Plates were read on EnVision reader after 60 minutes binding equilibration using Fluorescence Polarization protocol (Perkin Elmer).

Test [2] has as its target Active Human ERK2 (hERK2) (Homo sapiens (Human), UniProt P28482). Nature of the test: Active Human ERK2 (hERK2) Activity Assay (IMAP-FP). Type of test: biochemical. To be noted: read-out: ERK 2 Human average IC50. The procedure, abridged: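 Reaction contains 0.5 nM activated hERK2, 900 nM unlabeled plus 80 nM labeled peptide and 30 μM ATP, run 60 min. Quenched with IMAP binding beads in buffer with 24 mM NaCl; fluorescence polarization read after 60 min binding equilibration.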

The mark [3] stands for this setting: phosphorylated active mERK2, 30 uM ATP, read-out: ERK 2 MAPK1 Mouse IC50.
The mark [4] stands for this setting: phosphorylated active hERK2, 30 μM ATP, average.
Where [5] appears, read: read-out: AERK2 IC50 (Active mouse ERK2 Activity Assay).

Each structure is given as a SMILES string. Where a name gives a salt, the structure may show the parent alone. Read-outs that look alike come from different tables or passages of the source.

Sequence of Active Human ERK2 (hERK2) (P28482 whole entry): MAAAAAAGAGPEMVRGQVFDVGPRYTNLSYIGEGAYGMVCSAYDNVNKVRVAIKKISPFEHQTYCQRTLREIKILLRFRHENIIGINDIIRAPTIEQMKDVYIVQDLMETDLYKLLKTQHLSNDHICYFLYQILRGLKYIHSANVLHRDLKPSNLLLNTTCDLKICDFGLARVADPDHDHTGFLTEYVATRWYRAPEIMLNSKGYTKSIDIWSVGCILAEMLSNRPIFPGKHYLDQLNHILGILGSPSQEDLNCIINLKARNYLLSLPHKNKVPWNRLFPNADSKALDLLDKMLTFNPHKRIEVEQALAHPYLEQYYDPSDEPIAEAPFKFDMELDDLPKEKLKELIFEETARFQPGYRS
Sequence of Active Mouse ERK2 (mERK2) (P63085 whole entry): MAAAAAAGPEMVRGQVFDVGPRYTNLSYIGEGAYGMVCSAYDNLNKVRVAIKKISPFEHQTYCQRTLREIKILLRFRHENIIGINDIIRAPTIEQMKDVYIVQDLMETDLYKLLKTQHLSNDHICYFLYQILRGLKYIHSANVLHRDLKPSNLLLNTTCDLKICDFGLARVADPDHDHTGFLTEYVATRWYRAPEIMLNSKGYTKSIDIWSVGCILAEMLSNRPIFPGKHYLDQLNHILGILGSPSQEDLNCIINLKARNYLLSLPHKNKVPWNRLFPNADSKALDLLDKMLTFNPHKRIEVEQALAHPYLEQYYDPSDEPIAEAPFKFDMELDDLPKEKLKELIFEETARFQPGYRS

For the compound `Cc1cc(-c2n[nH]c3cc(NC(=O)NC4CCCNC4)ncc23)ccn1` (stereo not drawn) [Example 1, 3-({[3-(2-methylpyridin-4-yl)-1H-pyrazolo[4,3-c]pyridin-6-yl]carbamoyl}amino)piperidinium trifluoroacetate], the IC50 in test [1] (setting [3]) was found to be 3.13 nM.

As to `COc1cccc(F)c1CN1CCC[C@@H](NC(=O)Nc2cc3[nH]nc(-c4ccnc(C)c4)c3cn2)C1` [Example 2, 1-[(3R)-1-(2-fluoro-6-methoxybenzyl)-piperidin-3-yl]-3-[3-(2-methylpyridin-4-yl)-1H-pyrazolo[4,3-c]pyridin-6-yl]urea], the IC50 in test [2] (setting [4]) is 0.286 nM; in test [1] (setting [3]) it was 0.152 nM; in test [1] (setting [5]) it was 0.1 to 1.2 nM. Consider `COc1cccc(F)c1CN1CCC[C@H](NC(=O)Nc2cc3[nH]nc(-c4ccnc(C)c4)c3cn2)C1` [Example 3, 1-[(3S)-1-(2-fluoro-6-methoxybenzyl)-piperidin-3-yl]-3-[3-(2-methylpyridin-4-yl)-1H-pyrazolo[4,3-c]pyridin-6-yl]urea], for which the IC50 in test [1] (setting [3]) was found to be 36.6 nM.

With `COc1cccc(F)c1CN1CCCC(NC(=O)Nc2cc3[nH]nc(-c4ccnc(C)c4)c3cn2)C1` (stereo not drawn) [Example 4, 1-[1-(2-fluoro-6-methoxybenzyl)-piperidin-3-yl]-3-[3-(2-methylpyridin-4-yl)-1H-pyrazolo[4,3-c]pyridin-6-yl]urea], the IC50 was 1.12 nM in test [1] (setting [3]) and 0.1 to 1.2 nM in test [1] (setting [5]). The like results for `Cc1cc(-c2n[nH]c3cc(NC(=O)NCCc4ccccc4)ncc23)ccn1` [Example 5, 1-[3-(2-methylpyridin-4-yl)-1H-pyrazolo[4,3-c]pyridin-6-yl]-3-(2-phenylethyl)urea] were, in that order, 0.502 nM and 0.1 to 1.2 nM.

As for `Cc1cc(-c2n[nH]c3cc(NC(=O)N[C@H](C)c4ccccc4)ncc23)ccn1` [Example 6, 1-[3-(2-methylpyridin-4-yl)-1H-pyrazolo[4,3-c]pyridin-6-yl]-3-[(1R)-1-phenylethyl]urea], the IC50 in test [2] (setting [4]) was 0.204 nM; in test [1] (setting [3]) it was 0.152 nM; in test [1] (setting [5]), 0.1 to 1.2 nM. Regarding `Cc1cc(-c2n[nH]c3cc(NC(=O)N[C@@H](C)c4ccccc4)ncc23)ccn1` [Example 7, 1-[3-(2-methylpyridin-4-yl)-1H-pyrazolo[4,3-c]pyridin-6-yl]-3-[(1S)-1-phenylethyl]urea], in test [1] (setting [3]), the IC50 came to 38.3 nM. As to `Cc1cc(-c2n[nH]c3cc(NC(=O)NCc4ccc(Cl)c(Cl)c4)ncc23)ccn1` [Example 8, 1-(3,4-dichlorobenzyl)-3-[3-(2-methylpyridin-4-yl)-1H-pyrazolo[4,3-c]pyridin-6-yl]urea], the values for the IC50 in test [1] (setting [3]) and in test [1] (setting [5]) were 0.516 nM and 0.1 to 1.2 nM, respectively. As to `Cc1cc(-c2n[nH]c3cc(NC(=O)NCc4ccccc4)ncc23)ccn1` [Example 9], the IC50 in test [2] was 0.851 nM; in test [1] (setting [3]) it was 0.222 nM; in test [1] (setting [5]), 0.1 to 1.2 nM. Regarding `Cc1cc(-c2n[nH]c3cc(NC(=O)NC(CO)c4ccccc4)ncc23)ccn1` (stereo not drawn) [Example 10, 1-(2-hydroxy-1-phenylethyl)-3-[3-(2-methylpyridin-4-yl)-1H-pyrazolo[4,3-c]pyridin-6-yl]urea], the figures for the IC50 in test [1] (setting [3]) and in test [1] (setting [5]) were 0.215 nM and 0.1 to 1.2 nM, respectively.

For the compound `Cc1cc(-c2n[nH]c3cc(NC(=O)N[C@@H](C)c4ccc(F)cc4)ncc23)ccn1` [Example 11, 1-[(1S)-1-(4-fluorophenyl)ethyl]-3-[3-(2-methylpyridin-4-yl)-1H-pyrazolo[4,3-c]pyridin-6-yl]urea], the 50% inhibitory concentration (IC50) in test [2] (setting [4]) was 0.342 nM; in test [1] (setting [3]), 0.152 nM; in test [1] (setting [5]), 0.1 to 1.2 nM. As for `Cc1cc(-c2n[nH]c3cc(NC(=O)NCc4nnc(C)o4)ncc23)ccn1` [Example 13], in test [1] (setting [3]), the 50% inhibitory concentration (IC50) was 10.2 nM. As to `Cc1cc(-c2n[nH]c3cc(NC(=O)NCc4cccnc4)ncc23)ccn1` [Example 14, 1-[3-(2-methylpyridin-4-yl)-1H-pyrazolo[4,3-c]pyridin-6-yl]-3-(pyridin-3-ylmethyl)urea], the half-maximal inhibitory concentration (IC50) in test [1] (setting [3]) is 1.16 nM; in test [1] (setting [5]), 0.1 to 1.2 nM. Consider `Cc1cc(-c2n[nH]c3cc(NC(=O)N[C@H](CO)c4ccccc4)ncc23)ccn1` [Example 15, 1-[(1S)-2-hydroxy-1-phenylethyl]-3-[3-(2-methylpyridin-4-yl)-1H-pyrazolo[4,3-c]pyridin-6-yl]urea], for which the IC50 was 0.392 nM in test [2] (setting [4]) and 0.1 to 1.2 nM in test [1] (setting [5]). Take `Cc1cc(-c2n[nH]c3cc(NC(=O)N[C@@H](c4ccccc4)C(F)(F)F)ncc23)ccn1` [Example 16, 1-[3-(2-methylpyridin-4-yl)-1H-pyrazolo[4,3-c]pyridin-6-yl]-3-[(1S)-2,2,2-trifluoro-1-phenylethyl]urea]: the IC50 in test [1] (setting [3]) is 3.78 nM.

Regarding `Cc1cc(-c2n[nH]c3cc(NC(=O)N[C@@H](CO)c4ccccc4)ncc23)ccn1` [Example 17, 1-[(1R)-2-hydroxy-1-phenylethyl]-3-[3-(2-methylpyridin-4-yl)-1H-pyrazolo[4,3-c]pyridin-6-yl]urea], in test [1] (setting [3]), the half-maximal inhibitory concentration (IC50) stood at 108 nM. Same read-out and setting: for `Cc1cc(-c2n[nH]c3cc(NC(=O)N[C@H](c4ccccc4)C(F)(F)F)ncc23)ccn1` [Example 18, 1-[3-(2-methylpyridin-4-yl)-1H-pyrazolo[4,3-c]pyridin-6-yl]-3-[(1R)-2,2,2-trifluoro-1-phenylethyl]urea] the value was 9.46 nM. Take `Cc1cc(-c2n[nH]c3cc(NC(=O)N[C@H](C)c4ccc(Cl)cc4)ncc23)ccn1` [Example 19, 1-[(1R)-1-(4-chlorophenyl)ethyl]-3-[3-(2-methylpyridin-4-yl)-1H-pyrazolo[4,3-c]pyridin-6-yl]urea]: the half-maximal inhibitory concentration (IC50) in test [2] (setting [4]) was 0.556 nM; in test [1] (setting [3]), 0.296 nM; in test [1] (setting [5]) it was 0.1 to 1.2 nM. Consider `C[C@@H](NC(=O)Nc1cc2[nH]nc(C3=CCOCC3)c2cn1)c1ccccc1` [Example 20, 1-[3-(3,6-dihydro-2H-pyran-4-yl)-1H-pyrazolo[4,3-c]pyridin-6-yl]-3-[(1R)-1-phenylethyl]urea], for which the results for the IC50 in test [1] (setting [3]) and in test [1] (setting [5]) were 0.537 nM and 0.1 to 1.2 nM, respectively. With `COCCCc1n[nH]c2cc(NC(=O)N[C@H](C)c3ccccc3)ncc12` [Example 21, (R)-1-(3-(3-methoxypropyl)-1H-pyrazolo[4,3-c]pyridin-6-yl)-3-(1-phenylethyl)urea], the concentration for half-maximal inhibition (IC50) was found to be 2.53 nM in test [2] (setting [4]) and 2.23 nM in test [1] (setting [3]). For the compound `CCCc1n[nH]c2cc(NC(=O)N[C@H](C)c3ccccc3)ncc12` [Example 22, (R)-1-(1-phenylethyl)-3-(3-propyl-1H-pyrazolo[4,3-c]pyridin-6-yl)urea], the concentration for half-maximal inhibition (IC50) in test [2] (setting [4]) is 1.61 nM; in test [1] (setting [3]), 0.919 nM; in test [1] (setting [5]), 0.1 to 1.2 nM.

`Cc1cc(-c2n[nH]c3cc(NC(N)=O)ncc23)ccn1` [Example 23, 1-(3-(2-methylpyridin-4-yl)-1H-pyrazolo[4,3-c]pyridin-6-yl)urea]: the IC50 turned out to be 2 nM in test [2] (setting [4]) and 2.22 nM in test [1] (setting [3]).

For `C[C@@H](NC(=O)Nc1cc2[nH]ncc2cn1)c1ccc(F)cc1` [Example 24, 1-[(1R)-1-(4-fluorophenyl)ethyl]-3-(1H-pyrazolo[4,3-c]pyridin-6-yl)urea], the IC50 in test [2] (setting [4]) was 836 nM; in test [1] (setting [3]), 682 nM. In the case of `C[C@@H](NC(=O)Nc1cc2[nH]nc(C3CC3)c2cn1)c1ccccc1` [Example 25, 1-(3-cyclopropyl-1H-pyrazolo[4,3-c]pyridin-6-yl)-3-[(1R)-1-phenylethyl]urea], the concentration for half-maximal inhibition (IC50) in test [2] (setting [4]) is 1.96 nM; in test [1] (setting [5]), 0.1 to 1.2 nM. For `Cc1cc(-c2n[nH]c3cc(NC(=O)NCc4ccc(Cl)cc4)ncc23)ccn1` [Example 26, 1-(4-chlorobenzyl)-3-[3-(2-methylpyridin-4-yl)-1H-pyrazolo[4,3-c]pyridin-6-yl]urea], the values for the IC50 in test [2] (setting [4]), in test [1] (setting [3]) and in test [1] (setting [5]) were 0.513 nM, 0.457 nM and 0.1 to 1.2 nM, respectively. With `Cc1cc(-c2n[nH]c3cc(NC(=O)N[C@H](COCC(F)F)c4ccccc4)ncc23)no1` [Example 701], in test [2] (setting [4]), the IC50 is 4.57 nM.
